In patent US12077503B2, “Substituted cyclic amides and their use as herbicides” (FMC CORPORATION, priority 2015, dated 2024):

Legend:
Type in all cases: in vivo
[1] = test system: giant foxtail (Setaria faberii); test: Test A preemergence; conditions: for Foxtail, Giant plant response rating (0 to 100 scale, 0 is no effect, 100 is complete control): visual injury approx. 10 d
Text: (§1) Seeds of plant species selected from barnyardgrass (Echinochloa crus-galli), Kochia (Kochia scoparia), ragweed (common ragweed, Ambrosia elatior), ryegrass, Italian (Italian ryegrass, Lolium multiflorum), crabgrass, large (Digitaria sanguinalis), giant foxtail (Setaria faberii), green foxtail (Setaria viridis), morningglory (Ipomoea spp.), pigweed (Amaranthus retroflexus), velvetleaf (Abutilon theophrasti), wheat (Triticum aestivum), and corn (Zea mays) were planted into a blend of loam soil and sand and treated preemergence with a directed soil spray using test chemicals formulated in anon-phytotoxic solvent mixture which included a surfactant.
(§2) At the same time, plants selected from these crop and weed species and also blackgrass (Alopecurus myosuroides), and Galium (catchweed bedstraw, Galium aparine) were planted in pots containing the same blend of loam soil and sand and treated with postemergence applications of test chemicals formulated in the same manner. Plants ranged in height from 2 to 10 cm and were in the one- to two-leaf stage for the postemergence treatment. Treated plants and untreated controls were maintained in a greenhouse for approximately 10 d, after which time all treated plants were compared to untreated controls and visually evaluated for injury. Plant response ratings, summarized in Table A, are based on a 0 to 100 scale where 0 is no effect and 100 is complete control. A dash (-) response means no test result.

Kochia (Kochia scoparia) [2] = test: Test A preemergence; conditions: for Kochia plant response rating (0 to 100 scale, 0 is no effect, 100 is complete control): visual injury approx. 10 d
Text: as §1, §2

[3] = test system: pigweed (Amaranthus retroflexus); test: Test A preemergence; conditions: for Pigweed plant response rating (0 to 100 scale, 0 is no effect, 100 is complete control): visual injury approx. 10 d
Text: as §1, §2

[4] = test system: barnyardgrass (Echinochloa crus-galli); test: Test A preemergence; conditions: for Barnyardgrass plant response rating (0 to 100 scale, 0 is no effect, 100 is complete control): visual injury approx. 10 d
Text: as §1, §2

[5] = test system: ryegrass, Italian (Italian ryegrass, Lolium multiflorum); test: Test A preemergence; conditions: for Ryegrass, Italian plant response rating (0 to 100 scale, 0 is no effect, 100 is complete control): visual injury approx. 10 d
Text: as §1, §2

[6] = test system: ragweed (common ragweed, Ambrosia elatior); test: Test A preemergence; conditions: for Ragweed plant response rating (0 to 100 scale, 0 is no effect, 100 is complete control): visual injury approx. 10 d
Text: as §1, §2

[7] = test system: giant foxtail (Setaria faberii); test: Test A postemergence
Text: as §1, §2

Kochia (Kochia scoparia) [8] = test: Test A postemergence
Text: as §1, §2

[9] = test system: pigweed (Amaranthus retroflexus); test: Test A postemergence
Text: as §1, §2

corn (Zea mays) = test: Test A postemergence
Text: as §1, §2

[10] = test system: barnyardgrass (Echinochloa crus-galli); test: Test A postemergence
Text: as §1, §2

[11] = test system: wheat (Triticum aestivum); test: Test A postemergence
Text: as §1, §2

[12] = test system: blackgrass (Alopecurus myosuroides); test: Test A postemergence
Text: as §1, §2

[13] = test system: ryegrass, Italian (Italian ryegrass, Lolium multiflorum); test: Test A postemergence
Text: as §1, §2

[14] = test system: Galium (catchweed bedstraw, Galium aparine); test: Test A postemergence
Text: as §1, §2

[15] = test system: ragweed (common ragweed, Ambrosia elatior); test: Test A postemergence
Text: as §1, §2

[16] = test system: barnyardgrass (Echinochloa crus-galli); test: Test B flooded paddy test; conditions: Flood, 250 g ai/ha; 0 to 100 scale where 0 is no effect and 100 is complete control; 13 to 15 d
Procedure: (§3) Plant species in the flooded paddy test selected from rice (Oryra sativa), sedge, umbrella (small-flower umbrella sedge, Cyperus difformis), ducksalad (Heteranthera limosa), and barnyardgrass (Echinochloa crus-galli) were grown to the 2-leaf stage for testing. At time of treatment, test pots were flooded to 3 cm above the soil surface, treated by application of test compounds directly to the paddy water, and then maintained at that water depth for the duration of the test. Treated plants and controls were maintained in a greenhouse for 13 to 15 d, after which time all species were compared to controls and visually evaluated. Plant response ratings, summarized in Table B, are based on a scale of 0 to 100 where 0 is no effect and 100 is complete control. A dash (-) response means no test result.

[17] = test system: sedge, umbrella (small-flower umbrella sedge, Cyperus difformis); test: Test B flooded paddy test; conditions: Flood, 250 g ai/ha; 0 to 100 scale where 0 is no effect and 100 is complete control; 13 to 15 d
Procedure: as §3

rice (Oryra sativa) = test: Test B flooded paddy test; conditions: Flood, 250 g ai/ha; 0 to 100 scale where 0 is no effect and 100 is complete control; 13 to 15 d
Procedure: as §3

[18] = test system: ducksalad (Heteranthera limosa); test: Test B flooded paddy test; conditions: Flood, 250 g ai/ha; 0 to 100 scale where 0 is no effect and 100 is complete control; 13 to 15 d
Procedure: as §3

[19] = 125 g ai/ha, Preemergence, visual injury after approximately 10 d, 0 to 100 scale where 0 is no effect and 100 is complete control
[20] = 500 g ai/ha, preemergence, 0 to 100 scale, 0 = no effect, 100 = complete control
[21] = 125 g ai/ha, postemergence, visual rating after approx. 10 d, 0 to 100 scale (0 no effect, 100 complete control)
[22] = 500 g ai/ha, postemergence, visual injury, 0 to 100 scale (0 no effect, 100 complete control), approx. 10 d
[23] = Postemergence, 500 g ai/ha, 0 to 100 scale where 0 is no effect and 100 is complete control
[24] = 125 g ai/ha, postemergence, visual injury rating on 0 to 100 scale (0 no effect, 100 complete control), approx. 10 d

Cc1ccc(C2CNC(=O)C2C(=O)Nc2ccccc2F)cc1C(F)(F)F (racemic) [Compound 678]
Plant response rating, Foxtail, Giant [1, 19]: 80 | Plant response rating, Foxtail, Giant [1, 20]: 90 | Plant response rating, Kochia (Kochia (Kochia scoparia) [2]; [19]): 0 | Plant response rating, Kochia (Kochia (Kochia scoparia) [2]; [20]): 30 | Plant response rating, Pigweed [3, 19]: 0 | Plant response rating, Pigweed [3, 20]: 0 | Plant response rating, Barnyardgrass [4, 19]: 90 | Plant response rating, Barnyardgrass [4, 20]: 90 | Plant response rating, Ryegrass, Italian [5, 19]: 0 | Plant response rating, Ryegrass, Italian [5, 20]: 20 | Plant response rating, Ragweed [6, 19]: 0 | Plant response rating, Ragweed [6, 20]: 0 | Plant response rating, Foxtail, Giant [7, 21]: 20 | Plant response rating, Foxtail, Giant [7, 22]: 60 | Plant response rating, Kochia (Kochia (Kochia scoparia) [8]; [21]): 0 | Plant response rating, Kochia (Kochia (Kochia scoparia) [8]; [22]): 0 | Plant response rating, Pigweed [9, 21]: 0 | Plant response rating, Pigweed [9, 22]: 0 | Plant response rating, Corn (corn (Zea mays); [21]): 10 | Plant response rating, Corn (corn (Zea mays); [22]): 30 | Plant response rating, Barnyardgrass [10, 21]: 70 | Plant response rating, Barnyardgrass [10, 22]: 80 | Plant response rating, Wheat [11, 21]: 0 | Plant response rating, Wheat [11, 22]: 20 | Plant response rating, Blackgrass [12, 21]: 30 | Plant response rating, Blackgrass [12, 22]: 60 | Plant response rating, Ryegrass, Italian [13, 21]: 0 | Plant response rating, Ryegrass, Italian [13, 22]: 20 | Plant response rating, Galium [14, 21]: 0 | Plant response rating, Galium [14, 22]: 30 | Plant response rating, Ragweed [15, 21]: 0 | Plant response rating, Ragweed [15, 22]: 0 | Plant response rating, Barnyardgrass [16]: 40 | Plant response rating, Sedge, Umbrella [17]: 0 | Plant response rating, Rice (rice (Oryra sativa)): 10 | Plant response rating, Ducksalad [18]: 75

O=C1NCC(c2cc(C(F)(F)F)ccc2F)C1C(=O)Nc1cccc(F)c1F (stereo not drawn) [Compound 594]
Plant response rating, Foxtail, Giant [1, 19]: 90 | Foxtail, Giant plant response rating (0 to 100 scale, 0 is no effect, 100 is complete control) ([1]; Preemergence, 500 g ai/ha): 90 | Plant response rating, Kochia (Kochia (Kochia scoparia) [2]; [19]): 0 | Kochia plant response rating (0 to 100 scale, 0 is no effect, 100 is complete control) (Kochia (Kochia scoparia) [2]; Preemergence, 500 g ai/ha): 50 | Plant response rating, Pigweed [3, 19]: 0 | Pigweed plant response rating (0 to 100 scale, 0 is no effect, 100 is complete control) ([3]; Preemergence, 500 g ai/ha): 20 | Plant response rating, Barnyardgrass [4, 19]: 90 | Barnyardgrass plant response rating (0 to 100 scale, 0 is no effect, 100 is complete control) ([4]; Preemergence, 500 g ai/ha): 90 | Plant response rating, Ryegrass, Italian [5, 19]: 30 | Ryegrass, Italian plant response rating (0 to 100 scale, 0 is no effect, 100 is complete control) ([5]; Preemergence, 500 g ai/ha): 90 | Plant response rating, Ragweed [6, 19]: 0 | Ragweed plant response rating (0 to 100 scale, 0 is no effect, 100 is complete control) ([6]; Preemergence, 500 g ai/ha): 20 | Plant response rating, Foxtail, Giant [7, 21]: 90 | Plant response rating, Foxtail, Giant [7, 23]: 90 | Plant response rating, Kochia (Kochia (Kochia scoparia) [8]; [21]): 0 | Plant response rating, Kochia (Kochia (Kochia scoparia) [8]; [23]): 40 | Plant response rating, Pigweed [9, 21]: 0 | Plant response rating, Pigweed [9, 23]: 40 | Plant response rating, Corn (corn (Zea mays); [21]): 60 | Plant response rating, Corn (corn (Zea mays); [23]): 70 | Plant response rating, Barnyardgrass [10, 21]: 90 | Plant response rating, Barnyardgrass [10, 23]: 90 | Plant response rating, Wheat [11, 21]: 30 | Plant response rating, Wheat [11, 23]: 70 | Plant response rating, Blackgrass [12, 21]: 50 | Plant response rating, Blackgrass [12, 23]: 60 | Plant response rating, Ryegrass, Italian [13, 21]: 20 | Plant response rating, Ryegrass, Italian [13, 23]: 30 | Plant response rating, Galium [14, 21]: 0 | Plant response rating, Galium [14, 23]: 20 | Plant response rating, Ragweed [15, 21]: 0 | Plant response rating, Ragweed [15, 23]: 50 | Plant response rating, Barnyardgrass [16]: 70 | Plant response rating, Sedge, Umbrella [17]: 0 | Plant response rating, Rice (rice (Oryra sativa)): 35 | Plant response rating, Ducksalad [18]: 90

Cc1ccc(C2CNC(=O)C2C(=O)Nc2ccccc2F)c(F)c1 (racemic) [Compound 509]
Plant response rating, Foxtail, Giant [1, 19]: 40 | Foxtail, Giant plant response rating (0 to 100 scale, 0 is no effect, 100 is complete control) ([1]; Preemergence, 500 g ai/ha): 70 | Plant response rating, Kochia (Kochia (Kochia scoparia) [2]; [19]): 0 | Kochia plant response rating (0 to 100 scale, 0 is no effect, 100 is complete control) (Kochia (Kochia scoparia) [2]; Preemergence, 500 g ai/ha): 0 | Plant response rating, Pigweed [3, 19]: 0 | Pigweed plant response rating (0 to 100 scale, 0 is no effect, 100 is complete control) ([3]; Preemergence, 500 g ai/ha): 0 | Plant response rating, Barnyardgrass [4, 19]: 60 | Barnyardgrass plant response rating (0 to 100 scale, 0 is no effect, 100 is complete control) ([4]; Preemergence, 500 g ai/ha): 90 | Plant response rating, Ryegrass, Italian [5, 19]: 0 | Ryegrass, Italian plant response rating (0 to 100 scale, 0 is no effect, 100 is complete control) ([5]; Preemergence, 500 g ai/ha): 0 | Plant response rating, Ragweed [6, 19]: 0 | Ragweed plant response rating (0 to 100 scale, 0 is no effect, 100 is complete control) ([6]; Preemergence, 500 g ai/ha): 0 | Foxtail, Giant plant response rating [7, 24]: 0 | Plant response rating, Foxtail, Giant [7, 23]: 40 | Kochia plant response rating (Kochia (Kochia scoparia) [8]; [24]): 0 | Plant response rating, Kochia (Kochia (Kochia scoparia) [8]; [23]): 20 | Pigweed plant response rating [9, 24]: 0 | Plant response rating, Pigweed [9, 23]: 0 | Corn plant response rating (corn (Zea mays); [24]): 0 | Plant response rating, Corn (corn (Zea mays); [23]): 0 | Barnyardgrass plant response rating [10, 24]: 60 | Plant response rating, Barnyardgrass [10, 23]: 90 | Wheat plant response rating [11, 24]: 0 | Plant response rating, Wheat [11, 23]: 0 | Blackgrass plant response rating [12, 24]: 0 | Plant response rating, Blackgrass [12, 23]: 20 | Ryegrass, Italian plant response rating [13, 24]: 0 | Plant response rating, Ryegrass, Italian [13, 23]: 0 | Galium plant response rating [14, 24]: 0 | Plant response rating, Galium [14, 23]: 40 | Ragweed plant response rating [15, 24]: 0 | Plant response rating, Ragweed [15, 23]: 0 | Plant response rating, Barnyardgrass [16]: 0 | Plant response rating, Sedge, Umbrella [17]: 0 | Plant response rating, Rice (rice (Oryra sativa)): 0 | Plant response rating, Ducksalad [18]: 50
